# Source: PMC10579241, “Impact of trifluoromethyl and sulfonyl groups on the biological activity of novel aryl-urea derivatives: synthesis, in-vitro, in-silico and SAR studies” (Scientific Reports, 2023)
# Read-outs that look alike come from different tables or passages of the source.
# Assays:
# Type in all cases: cell-based
# Bacillus mycoides [1] = assay: microbe, parasite or virus in culture; settings: for zone of inhibition at 10 µg/disc / zone of inhibition at 10000 µg/mL: Bacillus mycoides, read-out: Inhibition zones diameter
# Escherichia coli [2] = assay: Agar well diffusion, E. coli; settings: Escherichia coli, read-out: Inhibition zones diameter; for zone of inhibition at 10 µg/disc: E. coli, reference antibiotic 10 mcg
# Candida albicans [3] = assay: Agar well diffusion, C. albicans; settings: for zone of inhibition at 10 µg/disc / zone of inhibition at 10000 µg/mL: Candida albicans, read-out: Inhibition zones diameter; for zone of inhibition at 10 µg/disc: reference antibiotic 10 mcg
# Bacillus mycoides [4] = assay: microbe, parasite or virus in culture
# Escherichia coli [5] = assay: MIC by serial dilution (agar wells), E. coli
# Candida albicans [6] = assay: MIC by serial dilution (agar wells), C. albicans
# [7] = test system: human lung carcinoma (A549); assay: cells; settings: for mortality at 100 µg/mL: A549, 48 h, 100 μg/mL
# colon cancer (HCT116) = assay: cells; settings: Homo sapiens; for mortality at 100 µg/mL: HCT-116, 48 h, 100 μg/mL
# prostate cancer (PC3) = assay: cells; settings: Homo sapiens, 48 h; for mortality at 100 µg/mL: 100 μg/mL
# skin cancer (A431) = assay: cells; settings: Homo sapiens, A-431, 100 μg/mL, 48 h
# [8] = test system: osteosarcoma cell line (HOS); assay: cells; settings: Homo sapiens, 48 h, 100 μg/mL
# [9] = test system: pancreatic cancer cell line (PACA2); assay: cells; settings: Homo sapiens, PaCa-2, 48 h; for mortality at 100 µg/mL: 100 μg/mL
# in vitro = settings: human, BJ1 normal skin fibroblast cells, 100 μg/mL
# [10] = test system: hepatocellular carcinoma cell line (HePG2); assay: cells; settings: Homo sapiens, 48 h
# [11] = read-out: Minimum inhibition concentration (MIC)
# [12] = 0.00488 mg/mL, 150 µL in DMSO, 15 mm agar well
# [13] = 0.00975 mg/mL, 150 µL in DMSO, 15 mm agar well
# [14] = 0.0195 mg/mL, 150 µL in DMSO, 15 mm agar well
# [15] = 0.0391 mg/mL, 150 µL in DMSO, 15 mm agar well
# [16] = 0.0781 mg/mL, 150 µL in DMSO, 15 mm agar well
# [17] = 0.1563 mg/mL, 150 µL in DMSO, 15 mm agar well
# [18] = 0.3125 mg/mL, 150 µL in DMSO, 15 mm agar well
# [19] = 0.625 mg/mL, 150 µL in DMSO, 15 mm agar well
# [20] = 1.25 mg/mL, 150 µL in DMSO, 15 mm agar well
# [21] = 2.50 mg/mL, 150 µL in DMSO, 15 mm agar well
# [22] = 5.00 mg/mL, 150 µL in DMSO, 15 mm agar well
# [23] = 10.0 mg/mL, 150 µL in DMSO, 15 mm agar well
structure (smiles),measurement,setting,value
"CNC(C)C1CCC(N)C(OC2C(N)CC(N)C(OC3OCC(C)(O)C(NC)C3O)C2O)O1 (stereo not shown) [Gentamicin, reference compound]",zone of inhibition at 10 µg/disc,Bacillus mycoides [1],11 ± 0.43 mm
same,zone of inhibition at 10 µg/disc,Escherichia coli [2],12 ± 0.18 mm
same,zone of inhibition at 10 µg/disc,Candida albicans [3]; C. albicans,12 ± 0.89 mm
"CC1(C)S[C@@H]2[C@H](NC(=O)[C@H](N)c3ccccc3)C(=O)N2[C@H]1C(=O)O [Ampicillin, reference compound]",zone of inhibition at 10 µg/disc,Bacillus mycoides [1],12 ± 0.93 mm
same,zone of inhibition at 10 µg/disc,Escherichia coli [2],20 ± 1.05 mm
same,zone of inhibition at 10 µg/disc,Candida albicans [3]; C. albicans,14 ± 0.25 mm
"Cc1ccc(S(=O)(=O)NC(=O)Nc2ccccc2C(F)(F)F)cc1 [Compound 11, 4-Methyl-N-[(2-{trifluoromethyl}phenyl)carbamoyl]benzenesulfonamide]",Inhibition zones diameter,"Bacillus mycoides [1]; B. mycoides, 200 μL of 10 mg/mL in DMSO in 15 mm holes, overnight 37 °C",31 ± 0.52 mm
same,zone of inhibition at 10000 µg/mL,Bacillus mycoides [1],31 mm
same,zone of inhibition at 10000 µg/mL,Escherichia coli [2],27 ± 0.58 mm
same,Inhibition zones diameter,"Candida albicans [3]; C. albicans, 200 μL of 10 mg/mL in DMSO in 15 mm holes, overnight 37 °C",32 ± 0.17 mm
same,zone of inhibition at 10000 µg/mL,Candida albicans [3],32 mm
same,zone of inhibition at 4.88 µg/mL,Bacillus mycoides [4]; read-out: Inhibition zone,0 mm
same,zone of inhibition at 9.75 µg/mL,Bacillus mycoides [4]; read-out: Inhibition zone,0 mm
same,zone of inhibition at 19.5 µg/mL,Bacillus mycoides [4]; read-out: Inhibition zone,0 mm
same,zone of inhibition at 39.1 µg/mL,Bacillus mycoides [4]; read-out: Inhibition zone,15 mm
same,zone of inhibition at 78.1 µg/mL,Bacillus mycoides [4]; read-out: Inhibition zone,16 mm
same,zone of inhibition at 156.3 µg/mL,Bacillus mycoides [4]; read-out: Inhibition zone,16 mm
same,zone of inhibition at 312.5 µg/mL,Bacillus mycoides [4]; read-out: Inhibition zone,17 mm
same,zone of inhibition at 625 µg/mL,Bacillus mycoides [4]; read-out: Inhibition zone,17 mm
same,zone of inhibition at 1250 µg/mL,Bacillus mycoides [4]; read-out: Inhibition zone,18 mm
same,zone of inhibition at 2500 µg/mL,Bacillus mycoides [4]; read-out: Inhibition zone,22 mm
same,zone of inhibition at 5000 µg/mL,Bacillus mycoides [4]; read-out: Inhibition zone,24 mm
same,zone of inhibition at 10000 µg/mL,Bacillus mycoides [4]; read-out: Inhibition zone,27 mm
same,MIC,Bacillus mycoides [4]; [11],39.1 µg/mL
same,zone of inhibition at 4.88 µg/mL,Escherichia coli [5]; [12],0 mm
same,zone of inhibition at 9.75 µg/mL,Escherichia coli [5]; [13],0 mm
same,zone of inhibition at 19.5 µg/mL,Escherichia coli [5]; [14],0 mm
same,zone of inhibition at 39.1 µg/mL,Escherichia coli [5]; [15],0 mm
same,zone of inhibition at 78.1 µg/mL,Escherichia coli [5]; [16],0 mm
same,zone of inhibition at 156.3 µg/mL,Escherichia coli [5]; [17],16 mm
same,zone of inhibition at 312.5 µg/mL,Escherichia coli [5]; [18],18 mm
same,zone of inhibition at 625 µg/mL,Escherichia coli [5]; [19],20 mm
same,zone of inhibition at 1250 µg/mL,Escherichia coli [5]; [20],22 mm
same,zone of inhibition at 2500 µg/mL,Escherichia coli [5]; [21],24 mm
same,zone of inhibition at 5000 µg/mL,Escherichia coli [5]; [22],28 mm
same,zone of inhibition at 10000 µg/mL,Escherichia coli [5]; [23],30 mm
same,MIC,Escherichia coli [5]; [11],156 µg/mL
same,zone of inhibition at 4.88 µg/mL,Candida albicans [6]; [12],0 mm
same,zone of inhibition at 9.75 µg/mL,Candida albicans [6]; [13],0 mm
same,zone of inhibition at 19.5 µg/mL,Candida albicans [6]; [14],0 mm
same,zone of inhibition at 39.1 µg/mL,Candida albicans [6]; [15],0 mm
same,zone of inhibition at 78.1 µg/mL,Candida albicans [6]; [16],16 mm
same,zone of inhibition at 156.3 µg/mL,Candida albicans [6]; [17],17 mm
same,zone of inhibition at 312.5 µg/mL,Candida albicans [6]; [18],20 mm
same,zone of inhibition at 625 µg/mL,Candida albicans [6]; [19],22 mm
same,zone of inhibition at 1250 µg/mL,Candida albicans [6]; [20],24 mm
same,zone of inhibition at 2500 µg/mL,Candida albicans [6]; [21],25 mm
same,zone of inhibition at 5000 µg/mL,Candida albicans [6]; [22],26 mm
same,zone of inhibition at 10000 µg/mL,Candida albicans [6]; [23],28 mm
same,MIC,Candida albicans [6]; [11],78.1 µg/mL
same,IC50,"[7]; MTT, 48 h",149.3 ± 0.23 µM
same,mortality at 100 µg/mL,colon cancer (HCT116),> 75%
same,IC50,"colon cancer (HCT116); HCT-116, MTT, 48 h",161.6 ± 0.24 µM
same,IC50,prostate cancer (PC3); MTT,114.7 ± 0.21 µM
same,mortality at 100 µg/mL,skin cancer (A431),10.5 ± 1.13%
same,mortality at 100 µg/mL,[8],44.2 ± 1.11%
same,IC50,[9]; MTT,80.7 µM
same,"mortality at 48 h, 100 µg/mL",in vitro,19.2 ± 0.57%
"NC[C@H]1O[C@H](O[C@H]2[C@H](O)[C@@H](O[C@H]3O[C@H](CO)[C@@H](O)[C@H](N)[C@H]3O)[C@H](N)C[C@@H]2N)[C@H](N)C[C@@H]1O [Tobramycin, reference compound]",zone of inhibition at 10 µg/disc,Bacillus mycoides [1],10 ± 0.31 mm
same,zone of inhibition at 10 µg/disc,Escherichia coli [2],13 ± 0.22 mm
same,zone of inhibition at 10 µg/disc,Candida albicans [3]; C. albicans,12 ± 0.61 mm
"COc1cc(NC(=O)NS(=O)(=O)c2ccc(C)cc2)cc(OC)c1 [Compound 10, N-[(3,5-Dimethoxyphenyl)carbamoyl]-4-methylbenzenesulfonamide]",zone of inhibition at 10000 µg/mL,Bacillus mycoides [1],24 ± 0.87 mm
same,zone of inhibition at 10000 µg/mL,Escherichia coli [2],22 ± 0.39 mm
same,zone of inhibition at 10000 µg/mL,Candida albicans [3],21 ± 0.32 mm
same,mortality at 100 µg/mL,[7],34.2 ± 1.2%
same,mortality at 100 µg/mL,colon cancer (HCT116),37.5 ± 1.12%
same,mortality at 100 µg/mL,prostate cancer (PC3),35.2 ± 0.89%
same,mortality at 100 µg/mL,skin cancer (A431),23.5 ± 0.97%
same,mortality at 100 µg/mL,[8],12.3 ± 1.21%
same,mortality at 100 µg/mL,[9],> 50%
"Cc1ccc(NC(=O)Nc2ccc(C(F)(F)F)cc2)cc1 [Compound 13, 1-(p-Tolyl)-3-[4-(trifluoromethyl)phenyl]urea]",zone of inhibition at 10000 µg/mL,Bacillus mycoides [1],16 ± 0.41 mm
same,zone of inhibition at 10000 µg/mL,Escherichia coli [2],18 ± 1.84 mm
same,zone of inhibition at 10000 µg/mL,Candida albicans [3],18 ± 0.66 mm
same,mortality at 100 µg/mL,[7],3.5 ± 0.55%
same,mortality at 100 µg/mL,colon cancer (HCT116),11.5 ± 1.19%
same,mortality at 100 µg/mL,prostate cancer (PC3),47.2 ± 0.63%
same,mortality at 100 µg/mL,skin cancer (A431),1.3 ± 0.78%
same,mortality at 100 µg/mL,[10]; 100 μg/mL,100%
same,IC50,[10]; MTT,121.7 ± 0.85 µM
same,mortality at 100 µg/mL,[8],~74.3%
same,mortality at 100 µg/mL,[9],35.8 ± 0.91%
same,"mortality at 48 h, 100 µg/mL",in vitro,84.2 ± 1.61%
